Assay results published in patent US20250017921A1, “PHARMACEUTICAL COMBINATION AND TUMOR TREATMENT” (IDEAYA Biosciences Inc., priority 2020, published 2025).

What was measured:
[1] = tested on: cMET, MAPK, PI3K and PKC signaling pathways in MM28 cells; experiment: Pharmacodynamic western blot, MM28 cells; assay type: cell-based, human
Procedure: (§1) For all experiments, cells were seeded 24 h before treatment at 2.5×10^6 cells in 10 cm^2 tissue culture plates in 10% RPMI media. For IDE196-HGF combinations, cells were treated with the IDE196 and HGF combinations in 2% RPMI media for 2 hrs according to Table 3. For IDE196-MET inhibitor experiments, 24 h after seeding, the media was replaced with the appropriate inhibitor combinations in 2% RPMI media in the presence of 1.23-3.7 ng/ml HGF for 2 h, according to Table 4.
(§2) For all experiments, cells were washed with ice cold PBS and protein lysates were prepared by lysing cells in a RIPA buffer containing protease and phosphatase inhibitors. Protein samples (15ug/well) were separated on 4-20% Bis-Tris SDS gels and electroblotted to nitrocellulose membranes using iBlot (Invitrogen). The membranes were incubated for 1b in Superblock buffer at RT, followed by overnight incubation with primary antibody at 4° C. The primary antibodies Phospho-Met (Tyr1234/1235) (3077S), cMET (3148S), Phospho-Akt (Ser473) (4060S), Akt (pan) (2920S), Phospho-MARCKS (Ser159/163) (11992S), MARCKS (5607S), PKCδ (9616S), Phospho-p44/42 MAPK (ERK1/2) (Thr202/Tyr204) (4377S), pRAS40 were obtained from Cell Signaling. Total ERK (ab184699) and PKC delta (phospho S299) (ab133456) antibodies were from Abcam. After three washes in PBST, the membrane was incubated with HRP-conjugated secondary antibody for 1 h at RT, washed thrice in PBST, and detected using enhanced chemiluminescence (Biorad Chemidoc XRS).

92.1 cells = experiment: Cell Titer-Glo cell viability, 92.1 cells; assay type: cell-based, human
Procedure: (§3) Luminescence was read using a plate reader (TECAN). Average luminescence of cells treated with DMSO was set to 100% and the % viable cells were calculated accordingly. Synergy/antagonism was analyzed using Combenefit software. […] Interactions between various combinations were evaluated using Bliss, HSA, and Loewe synergy/antagonism models. […] Cell viability was measured by CTG three days/five days after treatment.
(§4) After 24 hrs, the media was changed to 2% FBS/RPMI media. Further, the cell lines were screened for sensitivity to the PKC inhibitor, IDE196 alone or in combination with Hepatocyte growth factor (HGF) (Peprotech); at increasing doses according to Table 1 using a TECAN digital dispenser.

[2] = tested on: cMET, MAPK, PI3K and PKC signaling pathways in MEL-202 cells; experiment: Pharmacodynamic western blot, MEL-202 cells; assay type: cell-based, human
Procedure: as §1, §2

MEL-202 cells = experiment: Cell Titer-Glo cell viability, MEL-202 cells; assay type: cell-based, human
Procedure: as §3, §4

[3] = tested on: cMET, MAPK, PI3K and PKC signaling pathways in 92.1 cells; experiment: Pharmacodynamic western blot, 92.1 cells; assay type: cell-based, human
Procedure: as §1, §2

MM28 cells = experiment: Cell Titer-Glo cell viability, MM28 cells; assay type: cell-based, human
Procedure: as §3, §4

[4] = patient; cited from earlier work
[5] = presence of HGF, IDE196 alone and in combination with crizotinib
[6] = presence of HGF, IDE196 alone, up to highest concentrations
[7] = presence of HGF, crizotinib alone or in combination with IDE196
[8] = dose-dependent, not inhibited by addition of IDE196
[9] = at or above 3.7 ng/mL HGF, all concentrations of IDE196, HSA, Loewe, Bliss

CC1(N)CCN(c2cccnc2NC(=O)c2nc(-c3ncccc3C(F)(F)F)cnc2N)CC1 [IDE196, 3-amino-N-(3-(4-amino-4-methylpiperidin-1-yl)pyridin-2-yl)-6-(3-(trifluoromethyl)pyridin-2-yl)pyrazine-2-carboxamide]
pMARCKS and pPKC-delta ([1]; IDE196 treatment alone): dose-dependent decrease | dose at which pERK was inhibited ([1]; absence of HGF, 2 h): above 400 nM | effect on pAKT or pPRAS40 ([1]; presence of HGF, IDE196 alone): no effect | pMARCKS or pPKCδ [1, 5]: dose-dependent decrease | pERK inhibition [1, 6]: did not inhibit | EC50 (92.1 cells; Homo sapiens, 72 h, IDE196 alone, day 3, N=3, read-out: inhibition of cell viability EC50): 113 nM | pMARCKS and pPKC-delta ([2]; IDE196 treatment alone): dose-dependent decrease | dose at which pERK was inhibited ([2]; absence of HGF, 2 h): above 400 nM | effect on pAKT or pPRAS40 ([2]; presence of HGF, IDE196 alone): no effect | pMARCKS or pPKCδ [2, 5]: dose-dependent decrease | pERK inhibition [2, 6]: did not inhibit | EC50 (MEL-202 cells; Homo sapiens, Mel202, 72 h, IDE196 alone, day 3, N=3, read-out: inhibition of cell viability EC50): 250 nM | pMARCKS and pPKC-delta ([3]; IDE196 treatment alone): dose-dependent decrease | dose at which pERK was inhibited ([3]; absence of HGF, 2 h): above 400 nM | effect on pAKT or pPRAS40 ([3]; presence of HGF, IDE196 alone): no effect | pMARCKS or pPKCδ [3, 5]: dose-dependent decrease | pERK inhibition [3, 6]: did not inhibit | EC50 (MM28 cells; Homo sapiens, 120 h, IDE196 alone, day 5, N=3, read-out: inhibition of cell viability EC50): 342 nM

CNC(=O)c1ccc(-c2cnc3ncc(Cc4ccc5ncccc5c4)n3n2)cc1F [capmatinib, reference compound]
synergy with IDE196 on cell viability (92.1 cells; 1.23 ng/ml HGF, capmatinib, any dose combination): did not synergize | synergy with IDE196 on cell viability (MEL-202 cells; 1.23 ng/ml HGF, all doses of capmatinib, starting at 80 nM IDE196): high synergy | half-life [4]: about 6.5 hours | synergy with IDE196 on cell viability (MM28 cells; 1.23 ng/ml HGF, capmatinib, all the doses): high synergy

C[C@@H](Oc1cc(-c2cnn(C3CCNCC3)c2)cnc1N)c1c(Cl)ccc(F)c1Cl [crizotinib, reference compound]
HGF induced pMET, pERK, pAKT and pPRAS40 levels [1, 7]: strongly inhibited | HGF induced pMET, pERK, pAKT and pPRAS40 levels [2, 7]: strongly inhibited | pERK, pAKT and pPRAS40 ([3]; presence of HGF, higher concentrations of crizotinib alone or in combination with IDE196): modest decrease

HGF: Hepatocyte growth factor (Peprotech), the endogenous ligand for the extracellular cMET receptor
pERK (MAPK signaling), pAKT and pPRAS40 (PI3K signaling) on addition of HGF [1, 8]: induced | antagonism of IDE196 induced growth inhibition by HGF (92.1 cells; 1.23 to 33.33 ng/ml HGF, HSA, Loewe, Bliss): modest antagonism | cell viability on exposure to exogeneous HGF (92.1 cells; HGF alone): not | pERK (MAPK signaling), pAKT and pPRAS40 (PI3K signaling) on addition of HGF [2, 8]: induced | cell viability on exposure to exogeneous HGF (MEL-202 cells; HGF alone): increased cell viability significantly | antagonism of IDE196 induced growth inhibition by HGF (MEL-202 cells; [9]): high antagonism | pERK (MAPK signaling), pAKT and pPRAS40 (PI3K signaling) on addition of HGF [3, 8]: induced | cell viability on exposure to exogeneous HGF (MM28 cells; HGF alone): increased cell viability significantly | antagonism of IDE196 induced growth inhibition by HGF (MM28 cells; [9]): high antagonism
